Source: PubChem BioAssay AID449732 (Southern Research Specialized Biocontainment Screening …, 2010)

System: RSV titer reduction in cells, log virus titer
Assay: RSV replication inhibition by virus titer reduction, cell-based, selected compounds (AID 449732)
Conditions: hits give high values

Row | SMILES | max log titer decrease
1 | O=C(NC(=S)Nc1ccccc1C(=O)O)c1ccc(-c2ccc(Br)cc2)o1 | 8.03
2 | Cc1ccc(OCCn2c(C3CC(=O)N(Cc4ccccc4)C3)nc3ccccc32)cc1 (stereo unspecified) | 8.6
3 | O=C(CCNC(=O)c1ccc(Cl)cc1)NC1CCCc2ccccc21 (stereo unspecified) | 8.6
4 | CCOc1ccc(CNC(=O)c2cc3oc4ccccc4c3n2C)cc1 | 8.58
5 | c1csc(-c2nn3c(Cn4cnc5ccccc54)nnc3s2)c1 | 5.14
6 | Cc1ccc2c(c1)cc(C(=O)NCc1ccccc1)n2C | 8.03
7 | O=C(CCCOc1ccc(Cl)cc1Cl)Nc1ccccc1C(=O)O | 8.03
8 | COc1cccc(CNC(=O)c2cc3oc4ccccc4c3n2C)c1OC | 8.58
9 | COc1cccc(C(=O)N(Cc2nc(-c3cccc(C)c3)no2)C(C)C)c1OC | 8.03
10 | CSc1nnc(Cn2c(=O)sc3ccccc32)n1-c1cccc(Cl)c1 | 5.47
11 | O=C(O)C1CC=CCC1C(=O)Nc1ccc(S(=O)(=O)N2CCCc3ccccc32)cc1 (stereo unspecified) | 8.58
12 | COc1ccc(N(CC(=O)NC2CCCCC2)C(=O)c2ccc(C)s2)c(OC)c1 | 5.13
13 | O=[N+]([O-])c1ccccc1S(=O)(=O)Nc1cccc(-c2ccc(N3CCCC3)nn2)c1 | 9.13
14 | CSc1ncccc1C(=O)Nc1nc(C(C)(C)C)cs1 | 5.6
15 | CCCC(c1nnnn1CC(=O)OCC)N(Cc1cc2c(C)cc(C)cc2[nH]c1=O)C1CCCC1 (stereo unspecified) | 9.13
16 | O=C(NCc1ccco1)c1ccc(Cn2c(=O)c3ccccc3n(Cc3ccc(Cl)cc3)c2=O)cc1 | 8.58
17 | Cc1ccc(NC(=O)C2CCCN2S(=O)(=O)c2cccc3cccnc23)c(C)c1 (stereo unspecified) | 8.58
18 | c1ccc(-c2nn3c(Cn4cnc5ccccc54)nnc3s2)cc1 | 8.58
19 | CCOC(=O)c1ccc(NC(=S)N2CCSC2c2ccc(Br)cc2)cc1 (stereo unspecified) | 8.03
20 | Cc1ccc(-c2nc3cccnc3s2)cc1NS(=O)(=O)c1cccs1 | 9.13
21 | CCOc1ccc2nc(NC(=O)C(CCSC)NS(=O)(=O)c3cccs3)sc2c1 (stereo unspecified) | 8.58
22 | COc1ccc(C(c2c(NC(=O)c3ccco3)sc(C)c2C)N2CCOCC2)cc1OC (stereo unspecified) | 8.58
23 | COc1ccccc1CNC(=O)C1CCN(S(=O)(=O)c2cccc3nonc23)CC1 | 8.58
24 | O=S(=O)(c1cccc(-c2csc(-c3ccccc3)n2)c1)N1CCOCC1 | 8.58
25 | COC(=O)C1=C(C)N(Cc2ccccc2)C(=O)NC1c1ccccc1 (stereo unspecified) | 9.13
26 | Cc1ccc(CSCC(=O)Nc2ccccc2C(=O)O)cc1 | 8.03

Row | SMILES | max log titer decrease
27 | CCN(c1ccccc1)S(=O)(=O)c1ccc(Cl)c(NC(=O)CSc2n[nH]c(N)n2)c1 | 8.6
28 | C#CCn1c(S(=O)(=O)Cc2ccc(F)cc2)nc(-c2ccccc2)c1-c1ccccc1 | 3.37
29 | O=C(c1cc2nc(-c3ccccc3)cc(-c3ccccc3)n2n1)N1CCC2(CC1)OCCO2 | 8.03
30 | COC(=O)c1ccc(NC2c3ncccc3C(=O)N2Cc2cccs2)cc1 (stereo unspecified) | 5.08
31 | c1ccc(N2CCN(Cc3nc4ccccc4[nH]3)CC2)nc1 | 4.6
32 | Cc1cccc(NC(=O)CSc2nc3ccccc3nc2N2CCCCC2)c1 | 9.13
33 | CCOC(=O)c1c(-c2cccc(C)c2)csc1NC(=O)c1c(-c2ccccc2)noc1C | 8.03
34 | CN(C)C(=O)COC(=O)c1ccccc1Nc1ccc(SC(F)F)cc1 | 8.6
35 | Cc1sc2nc(C3CC3)nc(SCC(=O)N3c4ccccc4CC3C)c2c1C (stereo unspecified) | 9.13
36 | CCc1nc(SCC(=O)N2c3ccccc3CC2C)c2c(C)c(C)sc2n1 (stereo unspecified) | 9.13
37 | CC(C)(C)C(=O)Nc1sc(-c2ccccc2)cc1C(=O)O | 5.66
38 | Cc1ccc(-n2c(SCC(=O)Nc3ncc(Cl)cc3Cl)nc3ccccc32)cc1 | 8.6
39 | COc1ccc(C(=O)Nc2nc3c(s2)CCCC3)cc1S(=O)(=O)N1CCCc2ccccc21 | 8.6
40 | O=C(Nc1ccc(N2CCCCC2)c(Cl)c1)c1cccnc1 | 9.13
41 | CCOC(=O)C1=C(NC(=S)NC(=O)c2ccccc2)c2ccccc2CC1C(C)C (stereo unspecified) | 9.13
42 | Cc1c(NC(=O)COC(=O)c2cc(-c3ccc(-c4ccccc4)cc3)nc3ccccc23)c(=O)n(-c2ccccc2)n1C | 8.6
43 | CC1Cc2ccccc2N1S(=O)(=O)c1cccc(C(=O)N2CCN(c3ncccn3)CC2)c1 (stereo unspecified) | 8.6
44 | Cn1c(C(=O)NCc2ccccc2)cc2oc3ccccc3c21 | 8.58
45 | Cc1nc2ccccc2nc1Nc1cccc(Cl)c1 | 8.03
46 | COc1ccccc1NCC(=O)Nc1cc(S(=O)(=O)N2CCOCC2)ccc1N1CCOCC1 | 4.6
47 | COCCCNC(=O)c1ccc(Cn2c(=O)c3ccccc3n(Cc3ccc(C)cc3)c2=O)cc1 | 8.58
48 | CCOC(=O)c1ccc2[nH]c3c(c2c1)CN(C)CC3 | 9.13
49 | O=C(CCNC(=O)c1ccc(Br)cc1)NC1CCCc2ccccc21 (stereo unspecified) | 8.6
50 | O=C(O)c1cccnc1Nc1ccc(Cl)cc1 | 9.13
51 | Cc1cccc(-n2c(SCC(=O)Nc3ncc(Cl)cc3Cl)nc3ccccc32)c1 | 8.6
